Experimental data as given in patent publication US12428394B2, “2,4-disubstituted pyrimidine derivative, preparation method therefor and use thereof” (CHENGDU ZENITAR BIOMEDICAL TECHNOLOGY CO., LTD., priority 2019, dated 2025).

Tests used:
[1] = test system: MV4-11 cells (FLT3-ITD+/+); assay: Inhibition of cell proliferation by MTT experiment, MV4-11; assay type: cell-based, human; details: Homo sapiens, MV4-11; MTT, 72 h; read-out: IC50 value on cell proliferation inhibition, MV4-11 FLT3-ITD+/+
Description: (§1) MV4-11, MOLM-13 and SET-2 were used to determine the influence of the test compound of the present invention on the activity of cancer cells. MV4-11 and MOLM-13 were human leukemia cell lines from American Type Culture Collection (ATCC), expressing FLT3 receptor and containing FLT3-ITD mutation; and SET-2 was a primary thrombocythemia cell purchased from Chengdu Bowerston Biotechnology Co., Ltd., China, continuously expressing JAK2 receptor and containing the mutation of V617F.
(§2) MV4-11, MOLM-13 and SET-2 cells were filled in a 96-well petri dish with 100 μL IMDM as the medium, containing 10% fetal bovine serum (100 mL/bottle, purchased from Grassland Lvye Bio-Engineering Materials Co., Ltd. and cryopreserved at −20° C.), and with 10,000-15,000 cells in each well. […] In each group, 3-5 replicate wells were set and incubated in 5% CO2 at 37° C. for 72 h. At the endpoint, 20 μL MTT (5 mg/mL) was added to each well, and the cells were incubated for another 1-3 h.
(§3) After the inhibition rate of each concentration of compound on cell proliferation activity was calculated, the dose-response curve and IC50 value were fitted by Graphpad prism software according to the compound treatment concentrations and corresponding inhibition rates.

[2] = test system: SET-2 cells (JAK2 V617F); assay: Inhibition of cell proliferation by MTT experiment, SET-2; assay type: cell-based; details: Homo sapiens, SET-2; MTT, 72 h; read-out: IC50 value on cell proliferation inhibition, SET-2 (V617F)
Description: as §1, §2, §3

[3] = target: T1, FLT3 (Homo sapiens, UniProt P36888); assay: In vitro kinase activity experiment, FLT3; assay type: biochemical; details: 40 min; inhibition rate of enzyme at 500 nM; measured by Eurofins; read-out: Kinase activity @ 500 nM (%) FLT3
T1 construct: purchased Eurofins
T1 sequence (P36888 27-993): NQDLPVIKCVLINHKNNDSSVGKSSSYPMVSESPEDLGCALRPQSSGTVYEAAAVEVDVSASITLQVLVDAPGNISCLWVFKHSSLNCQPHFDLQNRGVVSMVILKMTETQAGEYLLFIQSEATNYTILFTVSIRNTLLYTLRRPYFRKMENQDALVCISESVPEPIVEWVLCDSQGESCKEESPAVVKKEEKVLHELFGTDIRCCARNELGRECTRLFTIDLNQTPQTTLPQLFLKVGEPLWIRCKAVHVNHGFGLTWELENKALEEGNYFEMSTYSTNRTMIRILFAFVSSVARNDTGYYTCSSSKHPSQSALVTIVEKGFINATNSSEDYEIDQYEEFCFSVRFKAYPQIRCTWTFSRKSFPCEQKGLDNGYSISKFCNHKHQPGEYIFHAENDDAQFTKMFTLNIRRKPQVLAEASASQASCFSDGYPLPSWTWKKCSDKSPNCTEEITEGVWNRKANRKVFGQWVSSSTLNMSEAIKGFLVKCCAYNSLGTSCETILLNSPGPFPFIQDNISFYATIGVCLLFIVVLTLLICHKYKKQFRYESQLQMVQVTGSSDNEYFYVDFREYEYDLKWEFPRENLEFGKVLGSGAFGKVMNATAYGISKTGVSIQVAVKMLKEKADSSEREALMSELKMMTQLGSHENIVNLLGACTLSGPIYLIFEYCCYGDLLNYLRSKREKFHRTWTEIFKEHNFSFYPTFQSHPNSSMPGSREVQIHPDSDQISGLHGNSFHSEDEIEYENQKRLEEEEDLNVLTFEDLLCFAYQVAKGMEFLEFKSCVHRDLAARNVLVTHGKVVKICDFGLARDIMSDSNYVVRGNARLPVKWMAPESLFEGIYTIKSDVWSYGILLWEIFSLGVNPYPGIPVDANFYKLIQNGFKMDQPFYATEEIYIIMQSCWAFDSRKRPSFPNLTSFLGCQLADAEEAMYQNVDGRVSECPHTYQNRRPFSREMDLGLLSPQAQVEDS
Description: (§4) Buffer solution ([…], pH 7.0, 0.2 mm EDTA, 10 mM mncl2), kinase to be tested, substrate of kinase to be tested, 10 mM magnesium acetate and γ33P-ATP solution, and compounds with different concentrations were added to a reaction tube in turn, then MgATP was added to initiate the enzyme reaction process, and incubated at room temperature for 40 min. Then, the reaction was terminated with 5 μl of […], and 10 μl of the reaction solution was titrated onto the Filtermat A membrane, washed with 75 mM phosphate solution for three times, each time for 5 min., and then washed with methanol once. Finally, the Filtermat A membrane was dried and the scintillation count was carried out.

[4] = target: T2, JAK2 (Homo sapiens, UniProt O60674); assay: In vitro kinase activity experiment, JAK2; assay type: biochemical; details: inhibition rate of enzyme at 500 nM; measured by Eurofins
T2 construct: purchased Eurofins
T2 sequence (O60674 whole entry): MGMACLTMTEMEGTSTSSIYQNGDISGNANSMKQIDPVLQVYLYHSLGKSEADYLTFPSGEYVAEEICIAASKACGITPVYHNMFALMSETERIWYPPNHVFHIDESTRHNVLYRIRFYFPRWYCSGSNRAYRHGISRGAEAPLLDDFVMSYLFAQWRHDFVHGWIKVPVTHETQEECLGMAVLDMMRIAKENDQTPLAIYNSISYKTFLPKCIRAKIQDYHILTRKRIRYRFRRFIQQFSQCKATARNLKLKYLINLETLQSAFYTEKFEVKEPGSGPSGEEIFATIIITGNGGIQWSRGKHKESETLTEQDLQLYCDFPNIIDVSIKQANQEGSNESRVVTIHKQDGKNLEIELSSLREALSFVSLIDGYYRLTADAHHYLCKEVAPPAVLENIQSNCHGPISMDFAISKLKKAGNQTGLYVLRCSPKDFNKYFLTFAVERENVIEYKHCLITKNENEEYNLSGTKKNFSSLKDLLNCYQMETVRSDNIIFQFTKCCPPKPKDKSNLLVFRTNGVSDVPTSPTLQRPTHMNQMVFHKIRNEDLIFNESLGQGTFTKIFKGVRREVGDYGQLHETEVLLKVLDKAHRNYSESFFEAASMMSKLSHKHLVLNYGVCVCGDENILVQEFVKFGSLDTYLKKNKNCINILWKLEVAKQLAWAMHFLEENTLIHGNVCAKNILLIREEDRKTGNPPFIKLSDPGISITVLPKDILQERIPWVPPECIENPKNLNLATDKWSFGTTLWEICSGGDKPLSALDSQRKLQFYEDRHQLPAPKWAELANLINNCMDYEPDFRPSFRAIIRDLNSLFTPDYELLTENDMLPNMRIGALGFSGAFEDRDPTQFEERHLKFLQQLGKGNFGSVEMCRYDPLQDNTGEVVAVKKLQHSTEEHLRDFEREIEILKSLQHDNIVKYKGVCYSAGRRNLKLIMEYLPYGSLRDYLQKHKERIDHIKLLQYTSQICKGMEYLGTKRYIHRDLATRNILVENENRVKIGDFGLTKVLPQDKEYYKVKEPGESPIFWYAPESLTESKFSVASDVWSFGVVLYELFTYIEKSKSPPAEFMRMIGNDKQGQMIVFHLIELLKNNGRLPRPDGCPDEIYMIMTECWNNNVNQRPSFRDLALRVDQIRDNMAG
Description: as §4

[5] = test system: MOLM-13 cells (FLT3-ITD-/+); assay: Inhibition of cell proliferation by MTT experiment, MOLM-13; assay type: cell-based, human; details: Homo sapiens, MOLM-13; MTT, 72 h; read-out: IC50 value on cell proliferation inhibition, MOLM-13 FLT3-ITD-/+
Description: as §1, §2, §3

| IC50 [1] [nM] | inhibition at 0.5 µM [3] [%] | Kinase activity @ 500 nM (%) JAK2 [4] [%] | IC50 [5] [nM] | Compound | IC50 [2] [nM] |
| --- | --- | --- | --- | --- | --- |
| 10 to 100 | 95 | 100 | 100 to 1000 | Cc1cnc(Nc2ccc(N3CCC(CO)CC3)c(F)c2)nc1-c1cnn(C(C)C)c1 [CLJ-42, 5-methyl-N-(3-fluoro-4-(4-hydroxymethylpiperidine-1-yl)phenyl)-4-(1-isopropyl-1H-pyrazole-4-yl) pyrimidine-2-amine] | 100 to 1000 |
| 10 to 100 | 94 | 95 | 100 to 1000 | Cc1cnc(Nc2ccc(N3CCC(NCCO)CC3)c(F)c2)nc1-c1cnn(C(C)C)c1 [CLJ-43, 5-methyl-N-(3-fluoro-4-(4-hydroxyethylaminopiperidine-1-yl)phenyl)-4-(1-isopropyl-1H-pyrazole-4-yl) pyrimidine-2-amine] | 100 to 1000 |
| 1 to 10 | 98 | 91 | 10 to 100 | Cc1cnc(Nc2ccc(N3CCC(N(C)CCCO)CC3)c(F)c2)nc1-c1cnn(C(C)C)c1 [CLJ-45, 5-methyl-N-(3-fluoro-4-(4-N-hydroxypropyl-4-N-methylaminopiperidine-1-yl)phenyl)-4-(1-isopropyl-1H-pyrazole-4-yl) pyrimidine-2-amine] | 100 to 1000 |

Continued, compound first:

| Compound | IC50 [1] [nM] | inhibition at 0.5 µM [3] [%] | Kinase activity @ 500 nM (%) JAK2 [4] [%] | IC50 [5] [nM] | IC50 [2] [nM] |
| --- | --- | --- | --- | --- | --- |
| Cc1cnc(Nc2ccc(N3CCN(C(=O)CO)CC3)c(F)c2)nc1-c1cnn(C(C)C)c1 [CLJ-40, 5-methyl-N-(3-fluoro-4-(4-hydroxyacetylpiperazine-1-yl)phenyl)-4-(1-isopropyl-1H-pyrazole-4-yl) pyrimidine-2-amine] | 10 to 100 | 94 | 96 | 10 to 100 | 100 to 1000 |
| Cc1cnc(Nc2ccc(N3CCC(N(C)C(=O)CO)CC3)c(F)c2)nc1-c1cnn(C(C)C)c1 [CLJ-41, N-(1-(2-fluoro-4-((4-(1-isopropyl-1H-pyrazol-4-yl)-5-methylpyrimidine-2-yl)amino)phenyl)piperidine-4-yl)-2-hydroxy-N-methylacetamide] | 10 to 100 | 97 | 102 | 100 to 1000 | 100 to 1000 |
| Cc1cnc(Nc2ccc(N3CCC(N(C)CCCCO)CC3)c(F)c2)nc1-c1cnn(C(C)C)c1 [CLJ-46, 5-methyl-N-(3-fluoro-4-(4-N-hydroxybutyl-4-N-methylaminopiperidine-1-yl)phenyl)-4-(1-isopropyl-1H-pyrazole-4-yl) pyrimidine-2-amine] | 1 to 10 | 98 | 102 | 10 to 100 | 100 to 1000 |
| Cc1cnc(Nc2ccc(N3CCC(N(C)CCCCCO)CC3)c(F)c2)nc1-c1cnn(C(C)C)c1 [CLJ-47, 5-methyl-N-(3-fluoro-4-(4-N-hydroxypentyl-4-N-methylaminopiperidine-1-yl)phenyl)-4-(1-isopropyl-1H-pyrazole-4-yl) pyrimidine-2-amine] | 1 to 10 | 94 | 93 | 10 to 100 | 100 to 1000 |
| CCOCCN(C)C1CCN(c2ccc(Nc3ncc(C)c(-c4cnn(C(C)C)c4)n3)cc2F)CC1 [CLJ-48, 5-methyl-N-(3-fluoro-4-(4-N-ethoxyethyl-4-N-methylaminopiperidine-1-yl)phenyl)-4-(1-isopropyl-1H-pyrazole-4-yl) pyrimidine-2-amine] | 100 to 1000 | 96 | 93 | 100 to 1000 | 100 to 1000 |
| CCCN(C)C1CCN(c2ccc(Nc3ncc(C)c(-c4cnn(C(C)C)c4)n3)cc2F)CC1 [CLJ-49, 5-methyl-N-(3-fluoro-4-(4-N-propyl-4-N-methylaminopiperidine-1-yl)phenyl)-4-(1-isopropyl-1H-pyrazole-4-yl) pyrimidine-2-amine] | 100 to 1000 | 91 | 95 | 100 to 1000 | 100 to 1000 |
